Experimental data from publication PMC11438102, “Modulation of cannabinoid receptor 2 alters neuroinflammation and reduces formation of alpha-synuclein aggregates in a rat model of nigral synucleinopathy” (Journal of Neuroinflammation, 2024).

Experiments:
[1] = system: IBA1, CD68, CD163, MHCII in substantia nigra; experiment: Immunohistochemistry/immunofluorescence of immune cell markers in substantia nigra; assay type: in vivo; settings: rat low cohort, 6 mg/kg i.p. daily 7 weeks, vs vehicle
Description: Brains were post-fixed in 4%PFA for 48 h and transferred to 30% sucrose and cut at 40 μm on a freezing microtome. In brief, endogenous peroxidase was quenched with 3% hydrogen peroxide, blocked with 8% normal serum, avidin (Vector Cat#SP-2001) and 0.1% Triton-X and incubated overnight at 4°C with biotin (Vectorlabs Cat#SP-2001), normal serum and primary antibodies specific for Asyn (Clone 4B12; BioLegend Cat# 807801, RRID: AB_2564730), pSer129 Asyn (Clone EP1536Y; Abcam Cat# ab51253, RRID: AB_869973), CD68 (Bio-Rad Cat# MCA341R, RRID: AB_2291300), MHCII (Bio-Rad Cat# MCA46GA, RRID: AB_567369), and CD163 (Bio-Rad Cat# MCA342A, RRID: AB_2074557). Tissue was incubated in appropriate biotinylated secondary antibodies (1:200), amplified with Vectastain ABC kit (Vectorlabs Cat#PK-6100) and developed with diaminobenzidine tablets or diaminobenzidine drop kit with nickel (Vector Cat#SK-4100) for CD68 immunostaining.
Tissue was blocked with 5% normal serum in TBS + 0.25% Triton-X and further incubated overnight at 4°C with primary antibodies specific for IBA1 (FUJIFILM Wako Pure Chemical Corporation Cat# 019-19741, RRID: AB_839504) and tyrosine hydroxylase (ImmunoStar Cat# 22941, RRID: AB_572268) to identify microglia in the substantia nigra or tyrosine hydroxylase (Millipore Cat# AB152, RRID: AB_390204) and Asyn (Clone 4B12; BioLegend Cat# 807801, RRID: AB_2564730) to evaluate accuracy of stereotaxic injection targets. Tissue was incubated in secondary antibodies conjugated to appropriate fluorophores for 2 h at room temperature and mounted tissue with Vectashield, an aqueous mounting media with DAPI (Vectorlabs Cat#H-2000).
IBA1-positive total immune cell counts and area of immunoreactivity (ir) were quantified using Nikon NIS elements software. Four fluorescent z-stacks of IBA1 stained nigra were collected from images of lesioned and non-lesioned nigra from targeted low cohort animals using a Nikon Eclipse 90i microscope and maximum project images were used for quantification. CD68-ir and CD163-ir was quantified from two to three microphotographs from each animal throughout the substantia nigra using ImageJ particle count analysis. Microphotographs of the nigra immunochemically stained for either Asyn, pSer129 Asyn and proteinase K-resistant Asyn were quantified using Image J (version 1.54f). Regions of Interest (ROIs) were drawn on two to three images throughout the nigra and optical density measurements collected and averaged for each animal. Measurements were normalized to the vehicle group so that data from all cohorts could be combined.

PBMCs = experiment: Multicolor flow cytometry of PBMCs (high cohort); assay type: in vivo, rat
Description: An additional cohort of rats (termed “high cohort”) was evaluated to determine effects of SMM-189 on immune cell populations in the brain, resident or infiltrating, and the periphery as measured by flow cytometry (Fig. 1). To ensure infiltrating peripheral immune cells, rats were stereotaxically injected with a higher titer of AAV2/5-human WT Asyn (4.6 × 10^12 vg/mL) and underwent an identical drug treatment timeline with animals sacrificed at 4 (SMM-189: n = 5; vehicle: n = 6) and 8 weeks (SMM-189: n = 7; vehicle: n = 7). At sacrifice, animals were deeply anesthetized with euthasol (i.p., 150 mg/kg) and rapid decapitation performed using a sharp guillotine. Brains were collected at endpoints, and brain immune cells isolated and evaluated using multicolor flow cytometry. Additionally, blood was collected at baseline, 4 and 8 weeks (SMM-189: n = 13; vehicle: n = 13) after stereotaxic surgery for PBMCs isolation to immunophenotype using flow cytometry and for plasma evaluation of SMM-189.
PBMCs were isolated from blood of low cohort rats at euthanasia (8 weeks) for qPCR analysis of immune genes and from blood of high cohort rats at baseline, 4 and 8 weeks after AAV2/5-human WT Asyn and evaluated with flow cytometry for a longitudinal immunophenotype assessment. Red blood cells were lysed using 1x RBC lysis buffer (Biolegend Cat#420301) for 5 min in the dark. Lysis buffer was neutralized by adding 1x HBSS (Gibco Cat#14175095). Cells were pelleted by centrifugation at 400g for 5 min, supernatant removed, and cells washed with HBSS. For the high cohort, cells were resuspended in 200μL of PBS and transferred to a 96-well v-bottom plate for flow cytometry staining. For low cohort, 10,000 cells were lysed in 600μL RLT lysis buffer (Qiagen Cat#79216) + 1% BME, further homogenized by centrifugation through a QiaShredder column (2 min at 21,130g). Lysate was then stored at -80°C and later processed for RNA extraction.
Peripheral and central immune cell staining was performed similarly as previously published protocols. In brief, immune cells were washed and resuspended in PBS, then incubated for 30 min at room temperature in LIVE/DEAD Fixable Red Dead cell stain (ThermoFisher Scientific Cat#L23102; 1:2000). Following two washes in PBS, Fc receptors were blocked with anti-rat CD32 Fc block diluted 1:100 in FACS buffer (1mM EDTA and 0.1% sodium azide in PBS) for 15 min at 4°C. PBMCs were stained for separate myeloid and lymphoid panels and brain immune cells stained with an antibody panel to identify microglia, monocytes and lymphocytes (Table S1-S3). Fluorophore conjugated antibodies diluted with FACS buffer were incubated at 4 °C for 20 min. Cells stained for surface myeloid markers were fixed in 1% PFA for 25 min and washed in FACS.
PBMCs stained with lymphoid panel were further probed intracellularly for transcriptional marker Foxp3 to label […] T cells. […] Then washed and resuspended in FACs buffer. All samples had 10uL of AccuCheck Counting beads (ThermoFisher Cat#PCB100) added to final suspension and cells were run on a LSRII Instrument (BD Biosciences, Franklin Lakes, NJ) with FACSDiva software (BD Biosciences). Results were analyzed using FlowJo 10.8.1 software and brain immune populations of monocytes (classical and non-classical), lymphocytes (CD4 + and CD8+) or microglia and PBMC populations defined by specific strategies (Figure S1-S3).
For PBMC analysis, raw frequencies were normalized across serial runs against vehicle-treated values using the following equation: Raw frequency / (average vehicle frequencies of specific run / average baseline frequencies). For brain immune cell analysis of 8 weeks, samples could not be collected and ran the same day so frequencies were normalized across treatment group at each timepoint using the following equation: raw frequency / (average treatment frequency of specific run 1 / average treatment frequency of specific run 2). […]

## O=C(c1ccccc1)c1cc(O)c(-c2cc(Cl)cc(Cl)c2)c(O)c1 [SMM-189]
[1]
  IBA1 counts and area in nigra, effect of treatment: not a significant effect of treatment
  intensity or area coverage of MHCII in the lesioned nigra: No differences
[1]; AAV-injected nigra
  nigral CD68-ir particle counts: increased
[1]; lesioned nigra
  CD163 in the nigra: decreased
PBMCs; 4 weeks, vs control
  MHCII MFI on CD43-His48+ classical monocytes: increased
PBMCs; 8 weeks compared to own baseline
  frequencies of Tregs (CD4+Foxp3+; CD4+Foxp3+CD25+): elevated
PBMCs; 8 weeks, vs vehicle
  granulocytes: decreases
  wound-healing non-classical monocytes (CD43+): increases
PBMCs; between treatments
  Lymphocyte frequencies of CD4 or CD8 populations (or the CD4 to CD8 ratio): did not reveal significant differences
PBMCs; vs vehicle
  counts of both CD4 and CD8+ T cells: decreased
PBMCs; weeks 4 and 8, vs vehicle
  circulating classically-activated monocytes (CD43-His48+): reduced
